According to patent US9757477B2, “Imaging brown adipose tissue with curcumin derivatives” (The General Hospital Corporation, priority 2013, dated 2017):

System: BAT cells induced from wild-type brown preadipocytes
Test: In vitro staining of BMPs-induced BAT cells (live cell confocal)
Assay type: cell-based
Details: live cell confocal images

CN(C)c1ccc(/C=C/C2=CC(=C/C=C3C=CC(=[N+](C)C)C=C3)/O[B-](F)(F)O2)cc1 [CRANAD-2]
staining of oil droplets in BAT cells: able to clearly label oil droplets in BAT cells
